Patent US20020055470A1, “Circumvention of human tumor drug resistance” (CITY OF HOPE, priority 1987, published 2002)
“And” between values parts separate entries of the source, which are not always exact repeats. Equal entries are not always repeated. Where two headings read alike, the source gives them in different places.

Assays:
Format in all cases: cell-based, human
K562S = assay: Inhibition of cell growth, Table VI
Method: (§1) Table VI includes EC50 data further exemplifying the invention. The data reported by Table VI was obtained by substantially the same procedure as that described with respect to Table III. In Table VI, “(C)” indicates continuous exposure, “(1 h)” and “(2 h)” indicate exposure for 1 hour and 2 hours; “HU” indicates hydroxyurea.

K562-araC = assay: Inhibition of cell growth, Table VI; details: for EC50: K562-araC
Method: as §1

HCF-7 DDP = assay: Inhibition of cell growth, Table VI; details: for EC50: HCF-7 DDP
Method: as §1

HCT8S = assay: Inhibition of cell growth (cells counted on Coulter Counter after six days)
Method: as §1

HCT8DDP = assay: as above
Method: as §1

A2780S = assay: as above
Method: The experiment was conducted in triplicate in the manner described with respect to Table I.
A2780 cells were well-plated (35 mm disnes) and 24 hours later the cells were treated with cisplatin for one hour, washed out and then treated with 6 concentrations of from 1 μM to 100 μM increased in equal increments of a nucleoside analog in saline. Cells were then washed and incubated for six days. The cells were counted on a Coulter Counter and the experiment was done in triplicate.
as §1

A2780DDP [1] = assay: as above; details: for Ratio (degree of resistance or cross-resistance): A2780DDP vs A2780S EC50
Method: The experiment was conducted in triplicate in the manner described with respect to Table I. […]
as §1

K562-VP16 = assay: Inhibition of cell growth, Table VI
K562-DDP = assay: Inhibition of cell growth, Table VI; details: K562-DDP
HCF7S = assay: Inhibition of cell growth, Table VI
A2780DDP [2] = assay: Dual labeled (14C/3H) DNA synthesis and degradation in response to cisplatin; incorporation of labelled nucleoside analogs; details: A2780DDP
From the text: A dual labeled (^14C/^3H) experiment was designed to measure simultaneously DNA synthesis and degradation in response to cisplatin.

[3] = Homo sapiens, (C) continuous exposure
[4] = Homo sapiens, (C) continuous exposure, read-out: EC50
[5] = Homo sapiens, HCT8-DDP, (C) continuous exposure, read-out: EC50
[6] = Homo sapiens, A2780S, (C) continuous exposure, read-out: EC50
[7] = Homo sapiens, A2780 DDP, (C) continuous exposure, read-out: EC50
[8] = (C) continuous exposure, read-out: EC50
[9] = HCT8-DDP, (C) continuous exposure, read-out: EC50
[10] = A2780S, (C) continuous exposure, read-out: EC50
[11] = A2780 DDP, (C) continuous exposure, read-out: EC50
[12] = continuous exposure, proliferation during 6 days, mean + SD, read-out: EC50 A2780S
[13] = continuous exposure, proliferation during 6 days, mean + SD, read-out: EC50 A2780DDP

Nc1nc2c(ncn2COCCO)c(=O)[nH]1 [Acyclovir]
EC50 (K562S; [3]): > 300 µM | EC50 (K562-araC; [3]): > 300 µM | EC50 (HCF-7 DDP; [3]): > 300 µM | EC50 (HCT8S; [4]): > 300 µM | EC50 (HCT8DDP; [5]): > 300 µM | EC50 (A2780S; [6]): > 300 µM | EC50 (A2780DDP [1]; [7]): > 300 µM | EC50 (K562-VP16; [3]): > 300 µM | EC50 (K562-DDP; [3]): > 300 µM | EC50 (HCF7S; [3]): > 300 µM

Nc1ncnc2c1ncn2[C@@H]1O[C@H](CO)C[C@H]1O [Cordicpin]
EC50 (K562S; (C) continuous exposure): 130 µM | EC50 (K562-araC; (C) continuous exposure): 67 µM | fold more sensitive, araC resistant vs sensitive K562 cells (K562-araC; K562 human leukemia cells): 2 fold | EC50 (HCT8S; [8]): 110 µM | EC50 (HCT8DDP; [9]): 95 µM | EC50 (A2780S; [10]): 70 µM | EC50 (A2780DDP [1]; [11]): 310 µM | EC50 (K562-VP16; (C) continuous exposure): 150 µM | EC50 (K562-DDP; (C) continuous exposure): 160 µM | EC50 (HCF7S; (C) continuous exposure): 130 µM

Nc1nc(O)c2ncn(COC(CO)CO)c2n1 [Ganciclovir, ganciclovir]
EC50 (K562S; [3]): 10 µM | EC50 (K562-araC; [3]): 20 µM | EC50 (HCF-7 DDP; [3]): 50 µM | fold more sensitive, cispt resistant vs sensitive MCF7 cells (HCF-7 DDP; MCF7 human breast cancer cells): 4 fold | EC50 (HCT8S; [4]): 60 µM | EC50 (HCT8S; Homo sapiens, treated 24 h after plating, counted six days later, mean + SD, read-out: Ganciclovir EC50): 60 µM | fold more sensitive, cispt resistant vs sensitive HCT8 cells (HCT8DDP; HCT8 human colon cancer cells): 1.5 fold | EC50 (HCT8DDP; [5]): 40 µM | EC50 (HCT8DDP; Homo sapiens, HCT8DDP, treated 24 h after plating, counted six days later, mean + SD, read-out: Ganciclovir EC50): 40 µM | EC50 (A2780S; [6]): 110 µM | EC50 (A2780S; Homo sapiens, A2780S, treated 24 h after plating, counted six days later, mean + SD, read-out: Ganciclovir EC50): 110 µM | fold more sensitive (lower concentration), cisplatin resistant vs sensitive A2780 cells (A2780DDP [1]; A2780DDP vs A2780S): 3-4 fold and 3.3 fold | EC50 (A2780DDP [1]; [7]): 30 µM | EC50 (A2780DDP [1]; Homo sapiens, A2780DDP, treated 24 h after plating, counted six days later, mean + SD, read-out: Ganciclovir EC50): 30 µM | EC50 (K562-VP16; [3]): 250 µM | EC50 (K562-DDP; [3]): 295 µM | EC50 (HCF7S; [3]): 200 µM

NC(=O)NO [NU, hydroxyurea]
EC50 (K562S; (C) continuous exposure): 40 µM | EC50 (K562-araC; (C) continuous exposure): 40 µM | EC50 (HCF-7 DDP; (C) continuous exposure): 200 µM | EC50 (HCT8S; [8]): 100 µM | EC50 (HCT8DDP; [9]): 100 µM | EC50 (A2780S; [10]): 75 µM | EC50 (A2780DDP [1]; [11]): 60 µM | EC50 (K562-VP16; (C) continuous exposure): 40 µM | EC50 (K562-DDP; (C) continuous exposure): 140 µM | EC50 (HCF7S; (C) continuous exposure): 100 µM

NC(=O)c1ncn([C@@H]2O[C@H](CO)[C@@H](O)[C@H]2O)n1 [Ribovirin]
EC50 (K562S; (C) continuous exposure): 62 µM | EC50 (K562-araC; (C) continuous exposure): 42 µM | EC50 (HCT8S; [8]): 70 µM | EC50 (HCT8DDP; [9]): 50 µM | EC50 (A2780S; [10]): 27 µM | EC50 (A2780DDP [1]; [11]): 45 µM | EC50 (K562-VP16; (C) continuous exposure): 55 µM | EC50 (K562-DDP; (C) continuous exposure): 75 µM | EC50 (HCF7S; (C) continuous exposure): 100 µM

Nc1ncnc2c1ncn2[C@@H]1O[C@H](CO)[C@@H](O)[C@@H]1O [araA]
Incorporation of labelled nucleoside analog into macromolecules (A2780DDP [2]; 0 min after cisplatin (20 μM) treatment): 19.01 | Incorporation of labelled nucleoside analog into macromolecules (A2780DDP [2]; 45 min after cisplatin (20 μM) treatment): 24.21 | Incorporation of labelled nucleoside analog into macromolecules (A2780DDP [2]; 90 min after cisplatin (20 μM) treatment): 27.91 | Incorporation of labelled nucleoside analog into macromolecules (A2780DDP [2]; 180 min after cisplatin (20 μM) treatment): 32.70 | EC50 (A2780S; [12]): 16.2 µM | Ratio (degree of resistance or cross-resistance) (A2780DDP [1]; continuous exposure): +4.0 | EC50 (A2780DDP [1]; [13]): 64.7 µM

Nc1ccn([C@@H]2O[C@H](CO)[C@@H](O)[C@@H]2O)c(=O)n1 [araC]
EC50 (K562S; (2h) exposure): 0.3 µM | EC50 (K562-araC; (2h) exposure): 8 µM | EC50 (HCF-7 DDP; (2h) exposure): 5 µM | EC50 (HCT8S; (2h) exposure, read-out: EC50): 29 µM | EC50 (HCT8DDP; HCT8-DDP, (2h) exposure, read-out: EC50): 79 µM | EC50 (A2780S; A2780S, (2h) exposure, read-out: EC50): 0.1 µM | EC50 (A2780S; [12]): 0.1 µM | Ratio (degree of resistance or cross-resistance) (A2780DDP [1]; continuous exposure): +45.0 | EC50 (A2780DDP [1]; A2780 DDP, (2h) exposure, read-out: EC50): 4.5 µM | EC50 (A2780DDP [1]; [13]): 4.5 µM | EC50 (K562-VP16; (2h) exposure): 8 µM | EC50 (K562-DDP; (2h) exposure): 0.3 µM | EC50 (HCF7S; (2h) exposure): 2.5 µM

Nc1ncnc2c1ncn2[C@H]1CC[C@@H](CO)O1 [ddA, 2′3′-dideoxyadenosine]
EC50 (K562S; (C) continuous exposure): 37.5 µM | EC50 (K562-araC; (C) continuous exposure): 36 µM | EC50 (HCF-7 DDP; (C) continuous exposure): 30 µM | EC50 (HCT8S; [8]): 33 µM | EC50 (HCT8DDP; [9]): 36 µM | EC50 (A2780S; [10]): 10 µM | EC50 (A2780DDP [1]; [11]): 25 µM | EC50 (K562-VP16; (C) continuous exposure): 35 µM | EC50 (K562-DDP; (C) continuous exposure): 28 µM | EC50 (HCF7S; (C) continuous exposure): 30 µM

Nc1nc2c(ncn2[C@H]2CC[C@@H](CO)O2)c(=O)[nH]1 [ddG, 2′,3′-dideoxyquanosene]
EC50 (K562S; (C) continuous exposure): 160 µM | EC50 (K562-araC; (C) continuous exposure): 150 µM | EC50 (HCF-7 DDP; (C) continuous exposure): 180 µM | EC50 (HCT8S; [8]): 35 µM | EC50 (HCT8DDP; [9]): 45 µM | EC50 (A2780S; [10]): 60 µM | EC50 (A2780DDP [1]; [11]): 110 µM | EC50 (K562-VP16; (C) continuous exposure): 170 µM | EC50 (K562-DDP; (C) continuous exposure): 190 µM | EC50 (HCF7S; (C) continuous exposure): 210 µM

Cc1cn([C@H]2CC[C@@H](CO)O2)c(=O)[nH]c1=O [ddT, 2′,3′-dideoxythymidine]
EC50 (K562S; (C) continuous exposure): > 400 µM | EC50 (K562-araC; (C) continuous exposure): > 400 µM | EC50 (HCF-7 DDP; (C) continuous exposure): > 500 µM | EC50 (HCT8S; [8]): > 150 µM | EC50 (HCT8DDP; [9]): > 500 µM | EC50 (A2780S; [10]): 110 µM | EC50 (A2780DDP [1]; [11]): > 750 µM | EC50 (K562-VP16; (C) continuous exposure): 200 µM | EC50 (K562-DDP; (C) continuous exposure): > 400 µM | EC50 (HCF7S; (C) continuous exposure): > 500 µM
